Measurements: paper PMC5007552, “The hVps34‐SGK3 pathway alleviates sustained PI3K/Akt inhibition by stimulating mTORC1 and tumour growth” (The EMBO Journal, 2016)
Values joined by “and” are separate entries in the source; they are usually repeats but may differ in a detail not shown here. Equal values may be shown once.

Test system: ZR-75-1 cells
Experiment: NanoString human kinome mRNA quantification
Format: cell-based
Excerpt: Human mRNAs were hybridised to NanoString human kinome and control code sets, then subjected to quantification using NanoString software. […] To permit data compaction, and simple kinome‐wide comparisons, the fold changes are log2 transformed. […] Cell pellets were resuspended at a concentration of ~6,500 cells/μl in RLT buffer (Qiagen). […] For total copy numbers, triplicate normalised count values were averaged, and to calculate fold induction, means were divided by triplicate mean values from matched DMSO controls. P‐values were calculated using unpaired t‐test (GraphPad Prism software) by employing treated and control count data for each kinase mRNA.

NC1(c2ccc(-c3nc4ccn5c(=O)[nH]nc5c4cc3-c3ccccc3)cc2)CCC1 [MK-2206] was tested, and the “BRD4 Normalised counts” value (BRD4 mRNA, single replicates) was 2584.75 and 2591.35 and 2590.29, the “BRDT Average normalised counts” value (BRDT mRNA, average of 3 replicates) was 1 and the “BRDT Normalised counts” value (BRDT mRNA, single replicates) was 1. For the same molecule, the “BRSK1 Average normalised counts” value (BRSK1 mRNA, average of 3 replicates) was 145.583, the “BRSK1 Normalised counts” value (BRSK1 mRNA, single replicates) was 127.82 and 151.05 and 157.88 and the “BRSK2 Average normalised counts” value (BRSK2 mRNA, average of 3 replicates) was 4.607. For the same molecule, the “BRSK2 Normalised counts” value (BRSK2 mRNA, single replicates) was 2.39 and 5.97 and 5.46, the “BTK Average normalised counts” value (BTK mRNA, average of 3 replicates) was 1 and the “BTK Normalised counts” value (BTK mRNA, single replicates) was 1. The “BUB1B Average normalised counts” value (BUB1B mRNA, average of 3 replicates) was 1729.87, the “BUB1B Normalised counts” value (BUB1B mRNA, single replicates) was 1717.6 and 1711.31 and 1760.7 and the “BUB1 Average normalised counts” value (BUB1 mRNA, average of 3 replicates) was 648.95. For the same molecule, the “BUB1 Normalised counts” value (BUB1 mRNA, single replicates) was 644.12 and 665.35 and 637.38, the “C9orf96 Average normalised counts” value (C9orf96 mRNA, average of 3 replicates) was 2.773 and the “C9orf96 Normalised counts” value (C9orf96 mRNA, single replicates) was 1 and 4.24 and 3.08. For the same molecule, the “C21orf7 Average normalised counts” value (C21orf7 mRNA, average of 3 replicates) was 1, the “C21orf7 Normalised counts” value (C21orf7 mRNA, single replicates) was 1 and the “CAMK1D average normalised counts” value (CAMK1D mRNA) was 339.763. The “CAMK1D normalised counts (replicates)” value (CAMK1D mRNA) was 364.15 and 317.85 and 337.29, the “CAMK1G average normalised counts” value (CAMK1G mRNA) was 1 and the “CAMK1G normalised counts (replicates)” value (CAMK1G mRNA) was 1. For the same molecule, the “CAMK1 average normalised counts” value (CAMK1 mRNA) was 4.053, the “CAMK1 normalised counts (replicates)” value (CAMK1 mRNA) was 4.2 and 2.5 and 5.46 and the “CAMK2A average normalised counts” value (CAMK2A mRNA) was 1. The “CAMK2A normalised counts (replicates)” value (CAMK2A mRNA) was 1, the “CAMK2B average normalised counts” value (CAMK2B mRNA) was 228.397 and the “CAMK2B normalised counts (replicates)” value (CAMK2B mRNA) was 211.86. The “CAMK2D average normalised counts” value (CAMK2D mRNA) was 829.067, the “CAMK2D normalised counts (replicates)” value (CAMK2D mRNA) was 815.91 and 824.33 and 846.96 and the “CAMK2G average normalised counts” value (CAMK2G mRNA) was 2774.38. The “CAMK2G normalised counts (replicates)” value (CAMK2G mRNA) was 2695.65 and 2845.89 and 2781.61, the “CAMK4 average normalised counts” value (CAMK4 mRNA) was 3.433 and the “CAMK4 normalised counts (replicates)” value (CAMK4 mRNA) was 4.2 and 5.1 and 1. For the same molecule, the “CAMKK1 average normalised counts” value (CAMKK1 mRNA) was 313.75, the “CAMKK1 normalised counts (replicates)” value (CAMKK1 mRNA) was 326.89 and 314.38 and 299.98 and the “CAMKK2 average normalised counts” value (CAMKK2 mRNA) was 584.02. For the same molecule, the “CAMKK2 normalised counts (replicates)” value (CAMKK2 mRNA) was 568.67 and 607.14 and 576.25, the “CAMKV average normalised counts” value (CAMKV mRNA) was 1.5 and the “CAMKV normalised counts (replicates)” value (CAMKV mRNA) was 1 (2×) and 2.5. The “CASK average normalised counts” value (CASK mRNA) was 727.217, the “CASK normalised counts (replicates)” value (CASK mRNA) was 714.11 and 680.12 and 787.42 and the “CCL2 average normalised counts” value (CCL2 mRNA) was 6.427. For the same molecule, the “CCL2 normalised counts (replicates)” value (CCL2 mRNA) was 9.66 and 3.37 and 6.25, the “CDC7 average normalised counts” value (CDC7 mRNA) was 336.743 and the “CDC7 normalised counts (replicates)” value (CDC7 mRNA) was 335.98 and 336.96 and 337.29. For the same molecule, the “CDC42BPA average normalised counts” value (CDC42BPA mRNA) was 675.63, the “CDC42BPA normalised counts (replicates)” value (CDC42BPA mRNA) was 678.66 and 677.51 and 670.72 and the “CDC42BPB average normalised counts” value (CDC42BPB mRNA) was 1143.02. The “CDC42BPB normalised counts (replicates)” value (CDC42BPB mRNA) was 1097.69 and 1178.77 and 1152.6, the “CDC42BPG average normalised counts” value (CDC42BPG mRNA) was 104.73 and the “CDC42BPG normalised counts (replicates)” value (CDC42BPG mRNA) was 110.55 and 108.48 and 95.16. The “CDK1 average normalised counts” value (CDK1 mRNA) was 3517.89, the “CDK1 normalised counts (replicates)” value (CDK1 mRNA) was 3504.63 and 3450.53 and 3598.5 and the “CDK2 average normalised counts” value (CDK2 mRNA) was 369.187. For the same molecule, the “CDK2 normalised counts (replicates)” value (CDK2 mRNA) was 366.88 and 370.84 and 369.84, the “CDK3 average normalised counts” value (CDK3 mRNA) was 56.79 and the “CDK3 normalised counts (replicates)” value (CDK3 mRNA) was 49.65 and 58.1 and 62.62. For the same molecule, the “CDK4 average normalised counts” value (CDK4 mRNA) was 2610.07, the “CDK4 normalised counts (replicates)” value (CDK4 mRNA) was 2590.21 and 2633.05 and 2606.96 and the “CDK5 average normalised counts” value (CDK5 mRNA) was 1339.04. For the same molecule, the “CDK5 normalised counts (replicates)” value (CDK5 mRNA) was 1332.2 and 1264.78 and 1420.13, the “CDK6 average normalised counts” value (CDK6 mRNA) was 35.6167 and the “CDK6 normalised counts (replicates)” value (CDK6 mRNA) was 34.2 and 34.64 and 38.01. The “CDK7 average normalised counts” value (CDK7 mRNA) was 605.207, the “CDK7 normalised counts (replicates)” value (CDK7 mRNA) was 585.94 and 619.3 and 610.38 and the “CDK8 average normalised counts” value (CDK8 mRNA) was 908.99. The “CDK8 normalised counts (replicates)” value (CDK8 mRNA) was 898.63 and 942.48 and 885.86, the “CDK9 average normalised counts” value (CDK9 mRNA) was 879.65 and the “CDK9 normalised counts (replicates)” value (CDK9 mRNA) was 853.18 and 899.91 and 885.86. For the same molecule, the “CDK10 average normalised counts” value (CDK10 mRNA) was 437.29, the “CDK10 normalised counts (replicates)” value (CDK10 mRNA) was 440.51 and 431.66 and 439.7 and the “CDK11A average normalised counts” value (CDK11A mRNA) was 420.55. For the same molecule, the “CDK11A normalised counts (replicates)” value (CDK11A mRNA) was 435.96 and 389.96 and 435.73, the “CDK12 average normalised counts” value (CDK12 mRNA) was 928.887 and the “CDK12 normalised counts (replicates)” value (CDK12 mRNA) was 909.53 and 946.82 and 930.31. The “CDK13 average normalised counts” value (CDK13 mRNA) was 1530.42, the “CDK13 normalised counts (replicates)” value (CDK13 mRNA) was 1564.9 and 1505.42 and 1520.95 and the “CDK14 average normalised counts” value (CDK14 mRNA) was 158.347. For the same molecule, the “CDK14 normalised counts (replicates)” value (CDK14 mRNA) was 151.46 and 173.64 and 149.94, the “CDK15 average normalised counts” value (CDK15 mRNA) was 1 and the “CDK15 normalised counts (replicates)” value (CDK15 mRNA) was 1. The “CDK16 average normalised counts” value (CDK16 mRNA) was 3907.09, the “CDK16 normalised counts (replicates)” value (CDK16 mRNA) was 3890.94 and 3866.66 and 3963.68 and the “CDK17 average normalised counts” value (CDK17 mRNA) was 1410.09. The “CDK17 normalised counts (replicates)” value (CDK17 mRNA) was 1395.83 and 1406.38 and 1428.07 and the “CDK18 average normalised counts” value (CDK18 mRNA) was 99.86.
